These results are taken from patent publication US9725442B2, “Heterocyclic derivative having PGD2 receptor antagonist activity” (Shionogi & Co., Ltd., priority 2011, dated 2017).

Data set [1] deals with CRTH2 (Homo sapiens (Human), UniProt Q9Y5Y4). As to the kind of experiment: CRTH2 receptor binding inhibitory activity ([3H]-PGD2 displacement, membranes of CRTH2-expressing K562 cell). Conditions: [3H]-PGD2 displacement, membrane of CRTH2-expressing K562 cell, read-out: Ki. A digest of the protocol: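 CRTH2-expressing K562 membranes (20 μg/well) in 50 mM Tris/HCl pH 7.4 with 10 mM MgCl2 were incubated with [3H]-PGD2 for 60 min at room temperature, then filtered.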
Sequence of CRTH2 (Q9Y5Y4 whole entry): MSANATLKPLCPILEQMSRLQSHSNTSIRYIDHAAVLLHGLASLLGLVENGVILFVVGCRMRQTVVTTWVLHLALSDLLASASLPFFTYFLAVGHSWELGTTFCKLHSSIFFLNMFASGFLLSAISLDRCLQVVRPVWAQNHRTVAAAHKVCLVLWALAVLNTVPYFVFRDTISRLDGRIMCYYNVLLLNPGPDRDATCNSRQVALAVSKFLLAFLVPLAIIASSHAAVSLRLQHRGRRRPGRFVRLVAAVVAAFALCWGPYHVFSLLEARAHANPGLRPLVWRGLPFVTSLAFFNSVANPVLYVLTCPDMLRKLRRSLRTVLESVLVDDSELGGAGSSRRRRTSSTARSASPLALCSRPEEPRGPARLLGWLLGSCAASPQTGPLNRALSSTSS

The target in data set [2] is Human DP1 receptor (Homo sapiens (Human), UniProt Q13258). Briefly: Human DP1 inhibitory activity in DP1-expressing cell (PGD2-induced cAMP). It counts as cell-based. Particulars: category of cAMP IC50, human DP1 receptor expressing Jurkut cell. As for the experimental part:
Compounds were categorized as AA (cAMP is less than 100 nM) and A (cAMP is more than 100 nM and less than 5000 nM) as shown in Table 99 and 100.

A short description of data set [3]: Metabolism stability test. It counts as in vitro ADME. Particulars: human liver microsomes, 30 minutes, 37° C., NADPH, 0.5 μmol/L of the compound. As to the method:
Using a commercially available pooled human hepatic microsomes, a compound of the present invention was reacted for a constant time, a remaining rate was calculated by comparing a reacted sample and an unreacted sample, thereby, a degree of metabolism in liver was assessed.
A reaction was performed (oxidative reaction) at 37° C. for 0 minute or 30 minutes in the presence of 1 mmol/L NADPH in 0.2 mL of a buffer (50 mmol/L Tris-HCl pH 7.4, 150 mmol/L potassium chloride, 10 mmol/L magnesium chloride) containing 0.5 mg protein/mL of human liver microsomes. After the reaction, 50 μL of the reaction mixture was added to 100 μL of a methanol/acetonitrile=1/1 (v/v), mixed and centrifuged at 3000 rpm for 15 minutes. The compound of the present invention in the supernatant was quantified by LC/MS/MS, and a remaining amount of the compound of the present invention after the reaction was calculated, letting a compound amount at 0 minute reaction time to be 100%. Glucuronidation reaction was in the presence of 5 mM UDP-glucuronic acid in place of NADPH, followed by similar operations.

In data set [4] the target is CYP1A2 (Homo sapiens (Human), UniProt P05177). As to the kind of experiment: CYP inhibition test, 7-ethoxyresorufin O-deethylation. The data set is classed as in vitro ADME. Conditions: pooled human hepatic microsome, 0.5 μmol/L ethoxyresorufin. The text has this:
(§1) Using commercially available pooled human hepatic microsome, and employing, as markers, 7-ethoxyresorufin O-deethylation (CYP1A2), tolbutamide methyl-hydroxylation (CYP2C9), mephenyloin 4′-hydroxylation (CYP2C19), dextromethorphan O-demethylation (CYP2D6), and terfenedine hydroxylation as typical substrate metabolism reactions of human main five CYP enzyme forms (CYP1A2, 2C9, 2C19, 2D6, 3A4), an inhibitory degree of each metabolite production amount by a compound of the present compound was assessed.
(§2) The reaction conditions were as follows: substrate, 0.5 μmol/L ethoxyresorufin (CYP1A2), 100 μmol/L tolbutamide (CYP2C9), 50 μmol/L S-mephenyloin (CYP2C19), 5 μmol/L dextromethorphan (CYP2D6), 1 μmol/L terfenedine (CYP3A4); reaction time, 15 minutes; reaction temperature, 37° C.; enzyme, pooled human hepatic microsome 0.2 mg protein/mL; concentration of a compound of the present invention, 1, 5, 10, 20 μmol/L (four points).
(§3) Each five kinds of substrates, human hepatic microsome, or a compound of the present invention in 50 mM Hepes buffer as a reaction mixture was added to a 96-well plate at the composition as described above, NADPH, as a cofactor was added to initiate metabolism reactions as markers and. After the incubation at 37° C. for 15 minutes, a methanol/acetonitrile=1/1 (v/v) solution was added to stop the reaction. After the centrifugation at 3000 rpm for 15 minutes, resorufin (CYP1A2 metabolite) in the supernatant was quantified by a fluorescent multilabel counter and tolbutamide hydroxide (CYP2C9 metabolite), mephenyloin 4′ hydroxide (CYP2C19 metabolite), dextrorphan (CYP2D6 metabolite), and terfenadine alcohol (CYP3A4 metabolite) were quantified by LC/MS/MS.

Data set [5] deals with CYP2D6 (Homo sapiens (Human), UniProt P10635). As to the kind of experiment: CYP inhibition test, dextromethorphan O-demethylation. It counts as in vitro ADME. Particulars: pooled human hepatic microsome, 5 μmol/L dextromethorphan.
Sequence of CYP2D6 (P10635 whole entry): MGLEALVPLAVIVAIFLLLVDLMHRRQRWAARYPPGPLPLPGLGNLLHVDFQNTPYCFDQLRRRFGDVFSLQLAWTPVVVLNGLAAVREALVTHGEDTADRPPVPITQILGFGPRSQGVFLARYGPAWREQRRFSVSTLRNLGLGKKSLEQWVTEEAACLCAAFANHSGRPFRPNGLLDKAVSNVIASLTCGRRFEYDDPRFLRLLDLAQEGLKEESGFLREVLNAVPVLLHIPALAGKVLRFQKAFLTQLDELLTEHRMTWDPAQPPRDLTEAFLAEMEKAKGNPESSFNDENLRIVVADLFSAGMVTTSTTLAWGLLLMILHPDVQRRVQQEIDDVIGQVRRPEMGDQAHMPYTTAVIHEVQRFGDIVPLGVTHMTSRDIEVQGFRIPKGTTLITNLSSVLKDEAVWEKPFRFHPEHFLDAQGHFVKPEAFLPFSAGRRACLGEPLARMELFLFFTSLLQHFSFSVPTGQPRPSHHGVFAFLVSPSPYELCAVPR
Description: as §1, §2, §3

For data set [6], the target named is CYP2C19 (Homo sapiens (Human), UniProt P33261). Briefly: CYP inhibition test, mephenyloin 4'-hydroxylation. The data set is classed as in vitro ADME. Conditions: pooled human hepatic microsome, 50 μmol/L S-mephenyloin.
Sequence of CYP2C19 (P33261 whole entry): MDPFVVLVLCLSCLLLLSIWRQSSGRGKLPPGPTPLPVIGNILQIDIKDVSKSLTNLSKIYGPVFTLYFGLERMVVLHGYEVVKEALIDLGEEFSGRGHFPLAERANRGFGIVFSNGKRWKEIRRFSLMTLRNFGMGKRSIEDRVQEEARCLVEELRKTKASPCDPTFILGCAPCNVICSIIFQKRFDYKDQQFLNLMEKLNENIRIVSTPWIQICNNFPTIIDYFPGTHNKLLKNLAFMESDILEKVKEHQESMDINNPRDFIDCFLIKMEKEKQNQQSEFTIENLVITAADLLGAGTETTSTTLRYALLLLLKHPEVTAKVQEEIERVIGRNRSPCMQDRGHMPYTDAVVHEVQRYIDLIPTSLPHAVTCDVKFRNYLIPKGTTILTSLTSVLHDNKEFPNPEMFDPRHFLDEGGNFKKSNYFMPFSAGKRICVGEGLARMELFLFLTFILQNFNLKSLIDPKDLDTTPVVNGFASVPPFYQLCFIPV
Description: as §1, §2, §3

The target in data set [7] is CYP3A4 enzyme expressed in Escherichia coli (Homo sapiens (Human), UniProt P08684). As to the kind of experiment: CYP3A4 fluorescent MBI test. The data set is classed as in vitro ADME. Particulars: pre-reaction time 0 or 30 minutes, substrate 7-BFC; read-out: CYP3A4 MBI, difference between IC50 values with and without preincubation. As to the method:
The CYP3A4 fluorescent MBI test is a test of investigating enhancement of CYP3A4 inhibition of a compound by a metabolism reaction, and the test was performed using, as CYP3A4 enzyme expressed in Escherichia coli and employing, as an index, a reaction in which 7-benzyloxytrifluoromethylcoumarin (7-BFC) is debenzylated by the CYP3A4 enzyme to produce a metabolite, 7-hydroxytrifluoromethylcoumarin (HFC) emitting fluorescent light.
The reaction conditions were as follows: substrate, 5.6 μmol/L 7-BFC; pre-reaction time, 0 or 30 minutes; reaction time, 15 minutes; reaction temperature, 25° C. (room temperature); CYP3A4 content (expressed in Escherichia coli), at pre-reaction […], at reaction […] (at 10-fold dilution); concentration of a compound of the present, 0.625, 1.25, 2.5, 5, 10, 20 μmol/L (six points).
An enzyme in a K-Pi buffer (pH 7.4) and a compound solution of the present invention as a pre-reaction mixture were added to a 96-well plate at the composition of the pre-reaction, a part of it was transferred to another 96-well plate so that it was 1/10 diluted by a substrate in a K-Pi buffer, NADPH as a co-factor was added to initiate a reaction as an index (without preincubation) and, after a predetermined time of a reaction, acetonitrile/0.5 mol/L Tris(trishydroxyaminomethane)=4/1 (V/V) was added to stop the reaction. In addition, NADPH was added to a remaining preincubation solution to initiate a preincubation (with preincubation) and, after a predetermined time of a preincubation, a part was transferred to another plate so that it was 1/10 diluted with a substrate and a K-Pi buffer to initiate a reaction as an index. After a predetermined time of a reaction, acetonitrile/0.5 mol/L Tris(trishydroxyaminomethane)=4/1 (V/V) was added to stop the reaction. For the plate on which each index reaction had been performed, a fluorescent value of 7-HFC which is a metabolite was measured with a fluorescent plate reader. (Ex=420 nm, Em=535 nm).

Data set [8] is described as follows: Solubility test (1% DMSO addition, artificial intestinal juice pH 6.8). Conditions: fassgf or other biorelevant, kinetic from dmso stock, artificial intestinal juice pH 6.8, 16 hours at 25° C. It counts as physicochemical. As for the experimental part:
A 10 mmol/L solution of the compound of the present invention is prepared with DMSO, and 6 μL of the compound solution is added to 594 μL of an artificial intestinal juice (water and 118 mL of 0.2 mol/L NaOH reagent are added to 250 mL of 0.2 mol/L potassium dihydrogen phosphate reagent to reach 1000 mL) with a pH of 6.8. The mixture is left standing for 16 hours at 25° C., and the mixture is vacuum-filtered. The filtrate is two-fold diluted with methanol/water=1/1 (V/V), and the compound concentration in the filtrate is measured with HPLC or LC/MS/MS by the absolute calibration method.

Data set [9] has as its target CYP3A4 (Homo sapiens (Human), UniProt P08684). Briefly: CYP inhibition test, terfenedine hydroxylation. It counts as in vitro ADME. Conditions: pooled human hepatic microsome, 1 μmol/L terfenedine.
Description: as §1, §2, §3

The target in data set [10] is CYP2C9 (Homo sapiens (Human), UniProt P11712). As to the kind of experiment: CYP inhibition test, tolbutamide methyl-hydroxylation. It counts as in vitro ADME. Particulars: pooled human hepatic microsome, 100 μmol/L tolbutamide.
Sequence of CYP2C9 (P11712 whole entry): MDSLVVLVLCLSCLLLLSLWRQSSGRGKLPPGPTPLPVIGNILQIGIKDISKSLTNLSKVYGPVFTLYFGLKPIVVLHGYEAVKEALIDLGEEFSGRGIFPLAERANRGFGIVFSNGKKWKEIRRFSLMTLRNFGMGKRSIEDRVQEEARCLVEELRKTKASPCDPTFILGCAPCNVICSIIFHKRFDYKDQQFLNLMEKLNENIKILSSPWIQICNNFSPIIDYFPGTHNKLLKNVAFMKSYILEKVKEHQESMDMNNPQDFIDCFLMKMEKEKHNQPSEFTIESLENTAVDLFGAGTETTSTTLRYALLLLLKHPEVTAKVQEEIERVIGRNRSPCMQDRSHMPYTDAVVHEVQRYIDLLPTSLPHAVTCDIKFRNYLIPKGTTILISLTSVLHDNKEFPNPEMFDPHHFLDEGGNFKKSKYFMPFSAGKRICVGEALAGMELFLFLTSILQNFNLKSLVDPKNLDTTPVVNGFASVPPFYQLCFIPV
Description: as §1, §2, §3

Structures are written as SMILES. Read-outs that look alike come from different tables or passages of the source. Where only a bound is given, the exact number is not on record here.

Sequence of Human DP1 receptor (Q13258 whole entry): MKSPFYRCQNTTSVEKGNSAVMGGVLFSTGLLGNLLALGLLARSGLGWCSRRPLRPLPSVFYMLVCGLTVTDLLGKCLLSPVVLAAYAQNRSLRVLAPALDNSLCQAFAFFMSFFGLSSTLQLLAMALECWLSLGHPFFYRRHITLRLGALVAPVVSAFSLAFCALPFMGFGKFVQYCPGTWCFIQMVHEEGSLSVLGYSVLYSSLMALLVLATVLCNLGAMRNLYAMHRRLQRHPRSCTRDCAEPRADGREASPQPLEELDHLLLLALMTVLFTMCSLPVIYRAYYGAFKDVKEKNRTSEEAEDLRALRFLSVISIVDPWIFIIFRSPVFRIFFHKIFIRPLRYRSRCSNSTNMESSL
Sequence of CYP3A4 (P08684 whole entry): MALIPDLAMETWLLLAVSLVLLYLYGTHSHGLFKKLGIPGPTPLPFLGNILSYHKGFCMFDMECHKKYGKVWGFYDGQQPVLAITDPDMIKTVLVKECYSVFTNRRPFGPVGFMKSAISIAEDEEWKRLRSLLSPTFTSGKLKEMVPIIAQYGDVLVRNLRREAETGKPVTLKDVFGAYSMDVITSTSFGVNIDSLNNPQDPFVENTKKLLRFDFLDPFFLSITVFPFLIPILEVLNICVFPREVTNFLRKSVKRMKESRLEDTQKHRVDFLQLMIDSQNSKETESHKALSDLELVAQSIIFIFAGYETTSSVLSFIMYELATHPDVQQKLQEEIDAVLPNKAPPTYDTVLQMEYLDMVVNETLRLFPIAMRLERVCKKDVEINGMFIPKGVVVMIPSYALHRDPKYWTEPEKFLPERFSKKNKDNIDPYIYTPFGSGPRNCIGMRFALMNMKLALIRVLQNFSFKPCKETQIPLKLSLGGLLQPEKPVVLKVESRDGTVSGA
Sequence of CYP3A4 enzyme expressed in Escherichia coli (P08684 whole entry): as above
Sequence of CYP1A2 (P05177 whole entry): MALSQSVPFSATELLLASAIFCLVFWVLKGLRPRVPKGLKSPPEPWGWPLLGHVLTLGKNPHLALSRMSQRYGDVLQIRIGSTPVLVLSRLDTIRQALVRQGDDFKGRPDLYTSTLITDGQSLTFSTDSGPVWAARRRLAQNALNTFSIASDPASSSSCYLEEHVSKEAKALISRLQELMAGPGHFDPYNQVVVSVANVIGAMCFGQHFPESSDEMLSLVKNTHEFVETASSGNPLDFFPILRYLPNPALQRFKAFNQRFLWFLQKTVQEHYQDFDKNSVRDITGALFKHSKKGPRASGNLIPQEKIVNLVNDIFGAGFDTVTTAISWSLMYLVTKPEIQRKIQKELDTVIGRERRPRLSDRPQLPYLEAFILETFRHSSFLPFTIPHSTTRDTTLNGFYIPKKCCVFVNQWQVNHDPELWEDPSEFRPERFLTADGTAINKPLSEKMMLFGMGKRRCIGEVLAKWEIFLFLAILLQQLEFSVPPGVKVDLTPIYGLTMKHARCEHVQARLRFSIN

Broadly, the Ki is the dissociation constant of the complex between target and ligand, obtained from inhibition or displacement. A word on the IC50: it is the concentration that gives 50% inhibition. A high value points to weaker potency. Usually solubility stands for the concentration that dissolves in the medium under given conditions. Consider `CC(C)Oc1ccc(S(=O)(=O)N2C[C@H](n3nc(CC(=O)O)c4ccc(F)cc43)C[C@H]2CO)cc1` [Compound I-9], for which the Ki in data set [1] (CRTH2 receptor binding, categorized AAAA/AAA) is less than 0.1 µM; in [1] it was 0.0062 µM. For the same compound, the IC50 in data set [2] was 0.1 to 5 µM; in data set [4], greater than 20 µM; in data set [5] it was greater than 20 µM; in data set [6] it was greater than 20 µM; in data set [9], greater than 20 µM; in data set [10] it was greater than 20 µM. Besides, in data set [3], the “remaining rate after reaction (result heading prints '% inhibition')” value is recorded as 98.7%. The difference in IC50 with vs without preincubation in data set [7] is no more than 3 µM. Also, the solubility at 16 h in data set [8] was greater than 50 µM.
